Among the test systems are ACHN renal; COLO 205 colon; HCT-15 colon; KM12 colon; M14 melanoma; MOLT-4 leukemia; NCI-H522 lung; SK-MEL-5 melanoma; SNB-75 CNS; TK-10 renal.
Holding throughout (assay): DTP human tumour cell line panel, 48 h

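Method: 48-hour compound exposure of cells in 96-well plates, five concentrations, linear interpolation of endpoints. The concentration for 50% growth inhibition is given as GI50. TGI: concentration producing complete growth inhibition.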

In general, TGI refers to the concentration giving total growth inhibition. What is called GI50 is the concentration at which growth is held to half of that of the control.

Take `CC(C)CNC1=NCC(C)S1` (stereo not drawn): the TGI with ACHN renal, with COLO 205 colon, with HCT-15 colon, in the assay with KM12 colon, in the assay with M14 melanoma and with MOLT-4 leukemia was over 100 µM throughout. Also, the TGI in the assay on NCI-H522 lung, in the assay on SK-MEL-5 melanoma, in the assay with SNB-75 CNS and in the assay with TK-10 renal was over 100 µM each time.
As for `Cc1[nH]c(C(=O)Nc2ccc(C(=O)NCCN)cc2OC(C)C)c(Cl)c1Cl`, the GI50 was 1.67 µM in the assay on ACHN renal, 1.74 µM in the assay on KM12 colon, 1.78 µM in the assay with SK-MEL-5 melanoma and 1.55 µM with SNB-75 CNS. For the same compound, the TGI with ACHN renal came to 3.07 µM; in the assay with KM12 colon, 3.21 µM; with SK-MEL-5 melanoma it was 3.2 µM; with SNB-75 CNS, 3.07 µM.
For `C=C(CN(C)C)C(=O)c1ccccc1OC`, the TGI was 28.2 µM in the assay on ACHN renal; 11 µM in the assay on COLO 205 colon; 33.3 µM in the assay with HCT-15 colon; 63 µM in the assay with KM12 colon; 28.9 µM in the assay on M14 melanoma; over 20.8 µM in the assay with MOLT-4 leukemia. In addition, the TGI came out at 6.01 µM in the assay with NCI-H522 lung, 31.1 µM in the assay on SK-MEL-5 melanoma, 61 µM in the assay on SNB-75 CNS and 30.3 µM in the assay with TK-10 renal.
With `COc1cc(/C=N/NC(=O)c2c(Cl)c(Cl)c(Cl)c(Cl)c2-c2nc3ccc(C(=O)c4ccccc4)cc3[nH]2)ccc1O`, the TGI in the assay with ACHN renal is over 100 µM; with COLO 205 colon, 58.1 µM; in the assay with HCT-15 colon, over 100 µM; in the assay on KM12 colon, over 100 µM; in the assay with M14 melanoma it was over 100 µM; in the assay on MOLT-4 leukemia, 64.1 µM. The TGI in the assay with NCI-H522 lung, in the assay on SK-MEL-5 melanoma, in the assay with SNB-75 CNS and with TK-10 renal was over 100 µM throughout.
Turning to `O=S(=O)(c1ccccc1)C1CC(c2nc3ccccc3[nH]2)=NO1` (stereo not drawn), the TGI in the assay with ACHN renal, in the assay on COLO 205 colon, with HCT-15 colon, with MOLT-4 leukemia, in the assay with NCI-H522 lung and with SK-MEL-5 melanoma was over 100 µM in each case. For the same compound, the TGI in the assay on SNB-75 CNS and in the assay with TK-10 renal was over 100 µM in each case.
With `C[N+]1(C(CO)Cc2c[nH]c3ccccc23)Cc2ccccc2C1` (stereo not drawn), the TGI with ACHN renal, in the assay with COLO 205 colon, in the assay on HCT-15 colon, in the assay with KM12 colon, with M14 melanoma and in the assay with MOLT-4 leukemia was over 100 µM throughout. In addition, the concentration for total growth inhibition (TGI) in the assay with NCI-H522 lung, in the assay with SK-MEL-5 melanoma, with SNB-75 CNS and with TK-10 renal was over 100 µM throughout.
With `CC(C)CCN(CCC(C)C)CC(=O)Nc1ccc(S(=O)(=O)c2ccc(NC(=O)CN(CCC(C)C)CCC(C)C)cc2)cc1`, the GI50 in the assay with ACHN renal was 1.94 µM; in the assay on HCT-15 colon, 1.29 µM; with KM12 colon, 1.62 µM; in the assay on M14 melanoma, 1.58 µM; in the assay on MOLT-4 leukemia, 2.28 µM; in the assay with NCI-H522 lung, 1.53 µM. The GI50 was 1.53 µM in the assay on SK-MEL-5 melanoma, 13.3 µM in the assay on SNB-75 CNS and 12.2 µM with TK-10 renal. The concentration for total growth inhibition (TGI) with ACHN renal came to 4.68 µM; with HCT-15 colon it was 3.89 µM; in the assay on KM12 colon it was 3.25 µM; in the assay with M14 melanoma, 4.01 µM; in the assay with MOLT-4 leukemia it was 7.44 µM; in the assay with NCI-H522 lung it was 3.2 µM. The results for the TGI in the assay with SK-MEL-5 melanoma, in the assay on SNB-75 CNS and in the assay with TK-10 renal were 3.05 µM, 42 µM and 25.5 µM, respectively.
As to `C[C@]12CC[C@H]3[C@@H](CC=C4C[C@@H](O)CC[C@@]43C)[C@@H]1C/C(=C\c1ccncc1)[C@@H]2O`, the TGI in the assay with ACHN renal was 50.5 µM; with COLO 205 colon, 24.9 µM; with HCT-15 colon it was 58.9 µM; in the assay with KM12 colon, 31.2 µM; in the assay with M14 melanoma, 40.6 µM; with MOLT-4 leukemia, 61.9 µM. The TGI is 57.7 µM in the assay on NCI-H522 lung, 21.1 µM with SK-MEL-5 melanoma, 62.8 µM in the assay with SNB-75 CNS and over 100 µM with TK-10 renal.
For the compound `Cc1ncc(C(=O)Nc2ccc(CN3CCN(C)CC3)c(C(F)(F)F)c2)cc1C#Cc1cnc(N)c2ccc(C#N)cc12`, the GI50 is 0.0146 µM with COLO 205 colon; 0.0485 µM in the assay on HCT-15 colon; 0.0559 µM with MOLT-4 leukemia; 0.0788 µM in the assay on NCI-H522 lung; 0.0572 µM with TK-10 renal. In addition, the TGI was over 100 µM with COLO 205 colon; 1.5 µM with HCT-15 colon; over 100 µM in the assay on MOLT-4 leukemia; over 100 µM in the assay with NCI-H522 lung; 2.82 µM in the assay on TK-10 renal.
Regarding `O=C1Nc2cccc(Cl)c2/C1=C\c1cccnc1`, the TGI with ACHN renal is over 100 µM; in the assay on COLO 205 colon, 15.9 µM; with HCT-15 colon, over 100 µM; in the assay with KM12 colon it was 25.9 µM; in the assay with M14 melanoma it was 19.6 µM; in the assay with MOLT-4 leukemia, 10.2 µM. Also, the TGI came to 21.6 µM in the assay on NCI-H522 lung, 27.4 µM with SK-MEL-5 melanoma, 40.2 µM in the assay with SNB-75 CNS and 34.7 µM in the assay on TK-10 renal.
Regarding `Cc1csc2nc(-c3cccc([N+](=O)[O-])c3)c(/C=N/N=C(N)N)n12`, the TGI with ACHN renal turned out to be 3.63 µM; with COLO 205 colon it was 3 µM; in the assay with HCT-15 colon it was 3.71 µM; with KM12 colon it was 4.86 µM; in the assay with M14 melanoma it was 3.1 µM; in the assay with NCI-H522 lung, 3.26 µM. The TGI in the assay with SK-MEL-5 melanoma amounted to 2.74 µM; in the assay on SNB-75 CNS, 3.16 µM; in the assay on TK-10 renal it was 3.17 µM.
